Tests used:
[1] = system: rat leukemia L 5222; test: Therapy test using the model of rat leukemia L 5222; format: in vivo; details: for optimal dose: L 5222
From the text: In the therapy test using the model of rat leukemia L 5222 (Ivankovic, Zeller, Leukamie L 5222 des Rattenstammes BD IX. Eine durch Athylnitrosoharnstoff induzierte monozytar-myeloische, transplantierbare Form fur zytochemische und chemotherapeutische Studien [Leukemia L 5222 of Rats of Stock BD IX. A monocytic-myeloid, transplantable form induced by ethylnitrosourea for cytochemical and chemotherapeutic studies]. Blut [Blood], 28; 288-292, 1974 and Zeller, Ivankovic, Schmahl, Cancer Research, Vol. 35, 1168-1174, 1975), the cortisone conjugate has good activity. At 176 mg/kg, the total median (replicated experiment!) at 65 days was 3 cured animals out of 6, while with CNU alanine in an equimolar dose with cortisone no cures were attained, with a median survival time of 20 days.

[2] = Toxicity of the compounds (LD50); format: in vivo; details: for LD50 at 2160 h: in vivo, period of observation: 90 days (printed with the cortisone ester)
From the text: Data on the toxicity of the compounds

[3] = target: estrogen receptor (Homo sapiens, UniProt P03372); test: biochemical; details: for affinity relative to estradiol (100%): parameter of 50% bonding inhibition of 3H-tagged estradiol
From the text: The estrogen-linked compounds were subjected to an estrogen receptor test (Lebercytosol) (Kranzfelder, Schneider, von Angerer, Schoneberger, J. Cancer Research Chim. Oncol. 97, 167-186 (1980)).

Sequence of estrogen receptor (P03372 whole entry): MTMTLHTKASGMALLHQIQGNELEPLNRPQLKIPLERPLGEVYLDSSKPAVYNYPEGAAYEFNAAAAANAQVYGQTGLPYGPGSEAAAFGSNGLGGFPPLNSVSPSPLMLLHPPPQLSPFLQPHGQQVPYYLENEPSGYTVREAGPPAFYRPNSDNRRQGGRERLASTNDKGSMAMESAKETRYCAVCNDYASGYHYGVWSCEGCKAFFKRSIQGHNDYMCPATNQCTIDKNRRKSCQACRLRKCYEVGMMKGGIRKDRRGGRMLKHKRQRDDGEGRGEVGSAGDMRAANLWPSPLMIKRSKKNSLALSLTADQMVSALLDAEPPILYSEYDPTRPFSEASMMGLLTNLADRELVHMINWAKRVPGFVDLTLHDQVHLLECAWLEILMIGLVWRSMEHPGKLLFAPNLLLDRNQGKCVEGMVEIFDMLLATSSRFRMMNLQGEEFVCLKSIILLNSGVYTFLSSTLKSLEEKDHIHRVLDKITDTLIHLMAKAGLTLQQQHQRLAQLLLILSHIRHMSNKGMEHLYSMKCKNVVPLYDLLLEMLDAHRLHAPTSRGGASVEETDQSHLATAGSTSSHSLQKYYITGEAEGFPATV

Compound: C[C@H](NC(=O)N(CCCl)N=O)C(=O)O [CNU alanine, reference compound]
- cures ([1]; equimolar dose with cortisone): no cures
- median survival time ([1]; equimolar dose with cortisone): 20 days
- LD50 at 2160 h [2]: 40 to 50 mg/kg

Compound: CC(NC(=O)N(CCCl)N=O)C(=O)OCC(=O)C1(O)CCC2C3CCC4=CC(=O)CCC4(C)C3C(=O)CC21C [N-(2-chloroethyl)-N-nitroso-carbamoyl-L-alanine-cortisone-21-ester]
- cured animals ([1]; 176 mg/kg): 3 cured animals out of 6
- total median (survival) ([1]; 176 mg/kg, replicated experiment): 65 days
- activity in therapy test ([1]; rat leukemia L 5222): good activity
- LD50 at 2160 h [2]: 220 to 280 mg/kg
- reduction in toxicity by linking CNU alanine with cortisone ([2]; relative to CNU alanine): sharp reduction in toxicity (by approximately threefold)

Compound: C[C@H](NC(=O)N(CCCl)N=O)C(=O)Oc1ccc2c(c1)CC[C@@H]1[C@@H]2CC[C@]2(C)[C@@H](O)CC[C@@H]12 [N-(2-chloroethyl)-N-nitroso-carbamoyl-L-alanine-estradiol-3-ester]
- optimal dose [1]: 279 mg/kg
- cures ([1]; optimal dose 279 mg/kg): 2 cures
- median survival time ([1]; optimal dose 279 mg/kg): 49 days
- IC50 [3]: 50 nM
- affinity relative to estradiol (100%) [3]: 16%

Compound: C[C@H](NC(=O)N(CCCl)N=O)C(=O)Oc1ccc2c(c1)CC[C@@H]1[C@@H]2CC[C@]2(C)C(=O)CC[C@@H]12 [N-(2-chloroethyl)-N-nitroso-carbamoyl-L-alanine-estrone-ester]
- optimal dose [1]: 351 mg/kg
- toxicity measured in tumor-bearing animals ([1]; compared with the cortisone derivative): even lower than with the cortisone derivative
- total median (survival) ([1]; optimal dose 351 mg/kg): 43 days
- IC50 [3]: 190 nM
- affinity relative to estradiol (100%) [3]: 4%
